According to ChEMBL document CHEMBL1126296, “Orally active aldose reductase inhibitors: indazoleacetic, oxopyridazineacetic, and oxopyridopyridazineacetic acid derivatives” (J Med Chem, 1992):
Calls of active or inactive are those of the source. No cut-off for these calls is given here.

Legend:
Rattus norvegicus [1] = assay: In vivo inhibition of sorbitol accumulation in sciatic nerve and lens of diabetic rat at a dose of 25 mg/kg.; type: functional
[2] = molecular target: Aldo-keto reductase family 1 member B1 (Homo sapiens, UniProt P15121); assay: Inhibitory activity against aldose reductase isolated from human placenta
Rattus norvegicus [3] = assay: In vivo inhibition of sorbitol accumulation in sciatic nerve and lens of diabetic rat at a dose of 10 mg/kg; NS=not significant; type: functional, organism-based; set-up: dose 10 mg/kg
Rattus norvegicus [4] = assay: In vivo inhibition of sorbitol accumulation in sciatic nerve and lens of diabetic rat at a dose of 10 mg/kg.; type: functional
Rattus norvegicus [5] = assay: In vivo inhibition of sorbitol accumulation in sciatic nerve and lens of diabetic rat at a dose of 25 mg/kg; NS=not significant; type: functional, organism-based; set-up: dose 25 mg/kg
Rattus norvegicus [6] = assay: In vivo inhibition of sorbitol accumulation in sciatic nerve and lens of diabetic rat at a dose of 100 mg/kg.; type: functional

O=C(O)Cc1nn(Cc2nc3ccccc3s2)c(=O)c2ccccc12
inhibition in vivo at 25 mg/kg (Rattus norvegicus [1]): 67%

O=C(O)Cc1nn(Cc2nc3cc(C(F)(F)F)ccc3s2)c(=O)c2cccnc12
inhibition in vivo at 25 mg/kg (Rattus norvegicus [1]): 74%
IC50 [2]: 41 nM

O=C(O)Cc1nn(Cc2nc3cc(F)cc(F)c3s2)c2ccccc12
inhibition in vivo at 25 mg/kg (Rattus norvegicus [1]): 61%
IC50 [2]: 30 nM

Cc1c(CC(=O)O)nn(Cc2nc3cc(C(F)(F)F)ccc3s2)c(=O)c1C
inhibition in vivo at 25 mg/kg (Rattus norvegicus [1]): 81%
IC50 [2]: 16 nM

O=C(O)Cc1nn(Cc2nc3cc(F)ccc3s2)c(=O)c2cccnc12
inhibition in vivo at 25 mg/kg (Rattus norvegicus [1]): 64%
IC50 [2]: < 10 nM

O=C(O)Cc1nn(Cc2nc3ccccc3o2)c2ccc(Cl)cc12
IC50 [2]: 100 nM

O=C(O)Cc1nn(Cc2nc3cc(F)cc(F)c3s2)c(=O)c2c1CCCC2
IC50 [2]: 4 nM

O=C(O)Cc1nn(Cc2nc3cc(F)ccc3s2)c2ccc(Cl)cc12
inhibition in vivo at 25 mg/kg (Rattus norvegicus [1]): 34%
IC50 [2]: 4.6 nM

O=C(O)Cc1ccc(=O)n(Cc2nc3cc(F)cc(F)c3s2)n1
inhibition in vivo at 25 mg/kg (Rattus norvegicus [1]): 32%
IC50 [2]: < 10 nM

Cc1c(CC(=O)O)nn(Cc2ccc(Br)cc2F)c(=O)c1C
inhibition (Rattus norvegicus [3]): inactive
IC50 [2]: 290 nM

O=C(O)Cc1nn(Cc2nc3cc(C(F)(F)F)ccc3s2)c(=O)c2c1CCCC2
inhibition in vivo at 10 mg/kg (Rattus norvegicus [4]): 61%
inhibition in vivo at 25 mg/kg (Rattus norvegicus [1]): 89%
IC50 [2]: 5.2 nM

O=C(O)Cc1nn(Cc2nc3cc(C(F)(F)F)ccc3s2)c2ccccc12
inhibition in vivo at 25 mg/kg (Rattus norvegicus [1]): 59%
IC50 [2]: 33 nM

Cc1c(CC(=O)O)nn(Cc2nc(-c3cccc(F)c3F)no2)c(=O)c1C
inhibition in vivo at 10 mg/kg (Rattus norvegicus [4]): 26%
IC50 [2]: 3.3 nM

O=C(O)Cc1nn(Cc2ccc(Br)cc2F)c(=O)c2c1CCCC2
inhibition in vivo at 25 mg/kg (Rattus norvegicus [1]): 87%
IC50 [2]: 32 nM

Cc1c(CC(=O)O)nn(Cc2nc3cc(F)cc(F)c3s2)c(=O)c1C
inhibition in vivo at 10 mg/kg (Rattus norvegicus [4]): 76%
IC50 [2]: 5 nM

Cc1cc(=O)n(Cc2nc3cc(C(F)(F)F)ccc3s2)nc1CC(=O)O
inhibition (Rattus norvegicus [5]): inactive
IC50 [2]: 18 nM

O=C(O)Cc1nn(Cc2nc3ccccc3s2)c2ccccc12
inhibition in vivo at 100 mg/kg (Rattus norvegicus [6]): 77%
inhibition in vivo at 25 mg/kg (Rattus norvegicus [1]): 52%
IC50 [2]: 680 nM

O=C(O)Cc1nn(Cc2ccc(Br)cc2F)c2ccccc12
IC50 [2]: 6200 nM

O=C(O)Cc1nn(Cc2nc3cc(C(F)(F)F)ccc3s2)c(=O)c2ncccc12
inhibition (Rattus norvegicus [3]): inactive
IC50 [2]: 2.1 nM

O=C(O)Cc1nn(Cc2ccc(Br)cc2F)c(=O)c2cc3ccccc3cc12
IC50 [2]: 420 nM

O=C(O)Cc1nn(Cc2nc3ccccc3s2)c(=O)c2cc3ccccc3cc12
inhibition in vivo at 100 mg/kg (Rattus norvegicus [6]): 48%
IC50 [2]: 46 nM

O=C(O)Cc1nn(Cc2ccc(Br)cc2F)c(=O)c2ncccc12
inhibition (Rattus norvegicus [5]): inactive
IC50 [2]: 760 nM

O=C(O)Cc1nn(Cc2nc3cc(Br)ccc3s2)c2ccc(Cl)cc12
inhibition in vivo at 25 mg/kg (Rattus norvegicus [1]): 56%
IC50 [2]: 65 nM

O=C(O)Cc1nn(Cc2nc3cc(C(F)(F)F)ccc3s2)c(=O)c2ccccc12 [ZOPOLRESTAT]
inhibition in vivo at 10 mg/kg (Rattus norvegicus [4]): 80%

O=C(O)Cc1nn(Cc2nc3cc(F)cc(F)c3s2)c2ccc(Cl)cc12
inhibition in vivo at 25 mg/kg (Rattus norvegicus [1]): 69%
IC50 [2]: 110 nM

O=C(O)Cc1nn(Cc2nc3cc(F)cc(F)c3s2)c(=O)c2cccnc12
inhibition in vivo at 25 mg/kg (Rattus norvegicus [1]): 68%
IC50 [2]: 26 nM

O=C(O)Cc1nn(Cc2nc3cc(C(F)(F)F)ccc3s2)c2ccc(Cl)cc12
inhibition (Rattus norvegicus [5]): inactive
IC50 [2]: 35 nM

O=C(O)Cc1ccc(=O)n(Cc2nc3cc(C(F)(F)F)ccc3s2)n1
inhibition (Rattus norvegicus [5]): inactive
IC50 [2]: 340 nM

O=C(O)Cc1nn(Cc2nc3ccccc3s2)c2ccc(Cl)cc12
inhibition (Rattus norvegicus [3]): inactive
IC50 [2]: 58 nM
